According to paper PMC6957531, “A butanolic fraction from the standardized stem extract of Cassia occidentalis L delivered by a self-emulsifying drug delivery system protects rats from glucocorticoid-induced osteopenia and muscle atrophy” (Scientific Reports, 2020):

Key:
in vivo = conditions: rat; for AUC / Cmax / increase of relative bioavailability by CSE-BuF compared to CSE-Bu / %Fr (relative bioavailability): male, Sprague Dawley; for AUC / Cmax / %Fr (relative bioavailability): 250 mg/kg
Protocol: All analytes were analyzed using API-QTRAP 4000 mass spectrometer (ABSciex, Canada) equipped with electrospray ionization (ESI) source in negative ion ([M-H]^−) mode [apigenin, isovitexin, emodin, luteolin, 3′,4′,7-trihydroxyflavone (THF), and fenofibric acid (FFA)] and quantified using Analyst 1.6 software (Applied Biosystems, MDS Sciex Toronto, Canada). Quantification was performed by multi-reaction monitoring (MRM), by monitoring the parent ion to product ion transition of 269.3/116.9 for apigenin, 431.2/311 for isovitexin, 269.1/224.9 for emodin, 284.9/133 for luteolin, 268.9/132.8 for THF, 316.9/230.9 for FFA (IS for apigenin, isovitexin, emodin, luteolin, and THF). Compound parameters, viz. declustering potential (V), entrance potential (V), collision energy, collision exit potential were −76, −10, −49, and −5 for apigenin; −100, −10, −20 and −15 for isovitexin; −100, −10, −40, and −10 for emodin; −100, −10, −50, and −20 for luteolin; −100, −10, −40, and −10 for THF; −55, −10, −12 and −10 for FFA; respectively. Source parameters, viz. curtain gas (psi), collision gas, ionspray voltage (V), ion source temperature (°C), nebulizer gas (GS1, psi) and turbo ion gas (GS2, psi) for apigenin, isovitexin, emodin, luteolin, THF, and FFA were 30, high, −4500, 500, 50, 50 respectively.
Shimadzu UFLC system (Kyoto, Japan) equipped with a binary pump (LC-20AD), a degasser (DGU-20A3), an autosampler (SIL-HTc) and a column oven (CTO-20AC) was used to inject the samples. The chromatographic separation of apigenin, isovitexin, emodin, luteolin, THF and FFA were performed on Phenomenex Luna (C18 (2), 100A, 150 × 4.6 mm, 3 μ) column with a mobile phase consisting of methanol: 10 mM ammonium acetate, 95:05 (v/v) at 0.6 mL/min flow rate. The temperature of the column oven was set at 40 °C during analysis. 10 µL samples were injected for quantification.
For extraction of apigenin, isovitexin, emodin, luteolin, THF, liquid-liquid extraction (LLE) method was applied for processing rat plasma. Plasma (100 µL) was incubated with 50 µL β-glucuronidase enzyme (2 mg/mL in 100 mM ammonium acetate buffer pH 5), and 50 µL ammonium acetate buffer (100 mM, pH 5) for 2 h at 37°C on water shaking bath. 200 µL ACN containing IS (FFA, 100 ng/mL) was added to plasma, vortex for 15 sec, and then 100 µL 0.1% formic acid (in 10 mM ammonium formate) was added. After vortexing for 5 min on vortexer (IKA^(R) VIBRAX VXR basic) at 1200 rpm, 2 mL ethyl acetate was added. The mixture was again vortexed for 10 min and then centrifuged at 10000 rpm for 5 min. The supernatant (1.5 mL) was transferred into Ria vial and completely dried in a TurboVap. The dried residue was reconstituted with 100 µL of mobile phase and analyzed by LC-MS/MS[44].
For determination of osteogenic compounds in the plasma of rats given CSE-Bu and CSE-BuF, we recruited male Sprague Dawley (SD) rats (220 ± 20 g) and were fasted overnight with free access to water. Rats were divided into 2 groups consisting of 6/group. One group received CSE-Bu (250 mg/kg/oral) and the other received CSE-BuF (250 mg/kg/oral). Blood (300 µL) was collected into 0.5 ml centrifuged tube containing EDTA at 0.25, 0.5, 1, 2, 4, 8, 12, 24, and 48 h and plasma was separated followed by centrifugation at 10000 rpm for 10 min and stored at -80 °C for further analysis. For pharmacokinetic analysis, plasma concentration versus time was plotted and analyzed by non-compartmental analysis method using WinNonlin (Pharsight, Mountain View, CA) software.

[1] = design: method as in PMID 30703497; conditions: cited from earlier work
bone = conditions: cited from earlier work
[2] = system: GILZ mRNA in thymus and bone; serum IL-1β; assay: Evaluation of the anti-inflammatory response (GILZ mRNA, serum IL-1β); design: species or system male SD rats; conditions: rat, in vivo
Protocol: (§1) The serum samples were collected from blood by centrifugation at 3000 rpm. Serum cross-linked C-telopeptide of Type I collagen (CTX-I), procollagen type I N-terminal propeptide (PINP), sclerostin (SOST), interleukin 1 beta (IL-1β) levels were determined by ELISA (MyBioSource, USA) following the manufacturer’s protocols.
Primer sequences are listed below:
Serum IL-1β level were measured to evaluate the effect of CSE-BuF on glucocorticoid-mediated anti-inflammatory response.

[3] = system: serum PINP, CTX-I, sclerostin (SOST); assay: GIO model: serum biochemical markers by ELISA; assay type: in vivo, male SD rats
Protocol: (§2) All treatments lasted for 4 weeks.
as §1

[4] = system: OCN, TRAP, DMP-1, MEPE, RANKL mRNA in bones; assay: GIO model: osteoblast-, osteoclast- and osteocyte-specific genes in bones by qPCR; conditions: rat, in vivo
femur diaphysis = assay: GIO model: bone dynamic histomorphometry (double calcein labeling); assay type: in vivo, male SD rats; conditions: versus control (Veh)
Protocol: as §2
For dynamic histomorphometric measurements, double calcein labeling was performed with an interval of 10 days between two calcein injections. We measured the periosteal perimeter, single-labeled surface (sLS), double labeled surface (dLS), and interlabeled thickness (IrLTh).

miR-29a, miR-17, miR-20a = assay: GIO model: miRNA expression in bones (TaqMan assay); design: species or system male SD rats; conditions: rat, in vivo
From the text: as §2
TaqMan assay (Thermo Fisher Scientific, USA) was used to determine miRNA expression in bones. Specific assay was designed based on published sequence using Thermo Fisher miRNA assay design tool. Assay ID of different miRNA was; hsa-miR-29a (OO2112), hsa-miR-17 (OO2308), hsa-miR-20a (OOO580) and U6 snRNA (OO1973)[54].

[5] = system: L5 vertebra and femur diaphysis; assay: GIO model: bone strength (L5 compression, femur 3-point bending); assay type: in vivo, male SD rats
Protocol: as §2
Bone mechanical strength was measured by three-point bending test for femur diaphysis and compression test for L5 vertebrae using a bone strength tester TK 252 C (Muromachi Kikai Co. Ltd, Tokyo, Japan) according to a previously published protocol[14],[52].

[6] = assay type: in vivo
Protocol: as §2
Body composition of live rats was analyzed using an Echo-MRI Body Composition Analyzer E26-226-RM (EchoMRI LLC, USA) as per our previously described method[14],[47]–[50].

[7] = system: atrogin 1 and MuRF1 in gastrocnemius muscle; assay: GIO model: immunoblotting of muscle atrogenes; design: species or system male SD rats; conditions: rat, in vivo
Protocol: as §2
Gastrocnemius muscle samples were collected from each group and protein lysates were prepared to determine the levels of muscle atrogenes [atrogin 1], and muscle ring finger protein (MuRF1). Relative expression of these proteins was detected by immunoblot analysis using specific antibodies againts atrogin 1 (Abcam; 1:1000 dilution), MuRF1 (Santa Cruz Biotechnology; 1:1000 dilution), and GAPDH (Merck Millipore; 1:1000 dilution). Densitometric analyses of immunoblots were performed using ImageJ software.

gastrocnemius muscle = assay: GIO model: muscle histomorphometry; assay type: in vivo, male SD rats; conditions: versus control
Protocol: as §2
Gastrocnemius muscles were carefully dissected and stored in chilled PBS for 48 h. Tissues were then transferred to 30% sucrose solution (in PBS) at 4 °C until they sank to the bottom. Tissues were embedded in OCT tissue freezing medium (Leica Bio systems, India) and cryo-sections (7 µm) were made using a Cryotome™ FSE Cryostat (Thermo Scientific). Tissue sections were collected on poly-L-lysine coated slides. For H&E staining, sections were rehydrated in PBS for 10 min and fixed in 10% formalin for 3 min. Then H&E staining was performed and mounted with DPX (Sigma). Quantitative analysis for determining cross-sectional area and Feret’s diameter of the muscle fibers were performed using Image J software[50],[56].

[8] = in vivo, AUC, CSE-BuF at 250 mg/kg orally, rat plasma, Mean ± SD
[9] = in vivo, CSE-BuF at 250 mg/kg orally, rat plasma, Mean ± SD
[10] = 4 weeks, MP 5 mg/kg s.c. daily, CSE-BuF 50 mg/kg oral daily, mean ± SEM, n = 10/group

| SMILES | AUC (in vivo; po, AUC) | Cmax (in vivo; po) | plasma level after single oral dosing of CSE-Bu (in words) (in vivo) | plasma level after single oral dosing of CSE-BuF (in words) (in vivo) | AUC (in vivo; [8]) | Cmax (in vivo; [9]) | in vivo bone conserving effect (bone) | increase of relative bioavailability by CSE-BuF compared to CSE-Bu (in vivo; po) | %Fr (relative bioavailability) (in vivo; po) | also measured |
| --- | --- | --- | --- | --- | --- | --- | --- | --- | --- | --- |
| O=c1cc(-c2ccc(O)c(O)c2)oc2cc(O)ccc12 [3′,4′,7-trihydroxyflavone (THF), 3′,4′,7-trihydroxyflavone] | 764 ± 382 ng·h/mL | 201 ± 107 ng/mL | not detectable | detectable and measured in plasma | – | – | – | – | – | – |
| O=c1cc(-c2ccc(O)cc2)oc2cc(O)c([C@@H]3O[C@H](CO)[C@@H](O)[C@H](O)[C@H]3O)c(O)c12 [Apigenin 6-C-glucoside Or Isovitexin, Apigenin 6-C-glucoside] | – | – | not detectable | detectable and measured in plasma | 17.9 ± 10.4 ng·h/mL | 7.74 ± 4.29 ng/mL | – | – | – | osteogenic effect in vitro among compounds of CSE-Bu [1]: best osteogenic effect in vitro; in vivo osteogenic effect (bone; mice, ref unpublished data, S. Pal and N. Chattopadhyay): has in vivo osteogenic effect in mice |
| O=c1cc(-c2ccc(O)cc2)oc2cc(O)cc(O)c12 [Apigenin] | 2.2 ± 1.15 ng·h/mL | 3.98 ± 3.03 ng/mL | not detectable | detectable and measured in plasma | – | – | in vivo bone conserving effect has been reported | – | – | – |
| Cc1cc(O)c2c(c1)C(=O)c1cc(O)cc(O)c1C2=O [Emodin] | – | – | could be measured in plasma | increases | 239 ± 31.1 ng·h/mL | 29.2 ± 13 ng/mL | in vivo bone conserving effect has been reported | 279% | 379.68 ± 87.63% | AUC (in vivo; in vivo, AUC, CSE-Bu at 250 mg/kg orally, rat plasma, Mean ± SD): 69.3 ± 33.2 ng·h/mL; Cmax (in vivo; in vivo, CSE-Bu at 250 mg/kg orally, rat plasma, Mean ± SD): 12.3 ± 3.8 ng/mL |
| O=c1cc(-c2ccc(O)c(O)c2)oc2cc(O)cc(O)c12 [Luteolin] | 259 ± 144 ng·h/mL | – | could be measured in plasma | increases | – | – | in vivo bone conserving effect has been reported | 36% | 136.94 ± 17.14% | AUC (in vivo; po): 456.33 ± 131.28 ng·h/mL |
| C[C@H]1C[C@@H]2[C@H]([C@@H](O)C[C@@]3(C)[C@H]2CC[C@]3(O)C(=O)CO)[C@@]2(C)C=CC(=O)C=C12 [MP, Methylprednisolone] | – | – | – | – | – | – | – | – | – | GILZ mRNA in thymus and bone [2]: robust increase; serum IL-1β [2]: suppressed; serum sclerostin ([3]; rat, in vivo): significantly increased; serum CTX-I (bone resorption marker) ([3]; versus control (Veh)): increased; serum PINP (bone formation marker) ([3]; versus control (Veh)): suppressed; RANKL mRNA in bones [4]: robust increase; TRAP mRNA in bones [4]: robust increase; mRNA levels of osteocyte markers DMP-1 and MEPE in bones [4]: significant decrease; osteocalcin (OCN) mRNA level in bones [4]: significantly suppressed; mineralizing surface (pMS/BS), mineral apposition rate (pMAR) and bone formation rate (pBFR/BS) (femur diaphysis): significant decreases; levels of miRNA 17, 20a and 29a in bones (miR-29a, miR-17, miR-20a): significant decreases; strength parameters (peak load, energy to failure and stiffness) [5]: decreased all strength parameters; Body weight [6, 10]: 239.86 ± 5.71 gm; Fat Mass [6, 10]: 6.12 ± 0.58 %; Lean Mass [6, 10]: 71.96 ± 2.43 %; decrease of fat mass compared to control ([6]; rat, in vivo): 40%; decrease of lean mass compared to control ([6]; rat, in vivo): 11%; atrogin and MuRF-1 protein levels in muscle [7]: increased; cross-sectional area and Feret's diameter of gastrocnemius muscle (gastrocnemius muscle): significantly reduced |
